In series [1] the test system is NANOG^iCasp9-YFP hPSCs transplanted subcutaneously (teratomas). Briefly: In vivo teratoma formation after AP20 pre-treatment of hPSCs (bioluminescent imaging). The conditions noted are these: 5×10^5 hPSCs pre-treated with 1 nM AP20 for 24 hours, subcutaneous transplantation. The arrangement: species or system NOD-SCID Il2rg^−/− mice. The protocol: (§1) FIG. 3: Implementation of the NANOG^iCasp9-YFP safety switch. A) Schema depicting how drug AP20187 induces dimerization of Caspase9 in undifferentiated NANOG^iCasp9-YFP hESCs, subsequently triggering cell death (top left). NANOG^iCasp9-YFP hESCs were treated for 24 hours with increasing concentrations of AP20187. AP20187 was withdrawn, and cultures were further grown in mTeSR1 to allow any surviving hESCs to grow; any surviving colonies were counted 1 week later (top right). Alkaline phosphatase staining of whole wells of a 12-well plate after 24-hour treatment with AP20187 (bottom). […] Bioluminescent imaging of mice occurred weekly for 5 weeks with no transplant control (NTC) animals included for relative luminescence normalization. Total flux (photons/sec) was measured for each animal and averaged. […] The percentage of surviving cells was calculated relative to untreated controls. […]
Given that very small numbers of hPSCs (10,000) are sufficient to form teratomas in vivo, we tested the lower bounds of this system to test whether any rare hPSCs survived drug treatment and whether they could form teratomas. […] We used bioluminescent imaging (using the AkaLuciferase system) to determine if micro-teratomas might form, rather than visual inspection of subcutaneous nodules, because bioluminescent imaging is more sensitive and quantitative. […]

For series [2], the system named is NANOG^iCasp9-YFP hPSC-derived day-6 liver progenitors, bone progenitors and forebrain progenitors. Put plainly: Survival of differentiated hPSC-derived tissue progenitors after AP20. It is filed as cell-based, human. The conditions noted are these: 24-hour AP20 treatment. How it is done:
as §1
Cell count assay—hESCs were dissociated with EDTA and 5×10^5 cells were plated per well of a 6-well plate that was pre-coated with Matrigel. […] Subsequently, cells were dissociated and the number of viable cells were counted using the Bio-Rad TC20™ Automated Cell Counter (trypan blue exclusion). […]

The structures appear in SMILES notation.

Turning to `CC[C@H](C(=O)N1CCCC[C@H]1C(=O)O[C@H](CCc1ccc(OC)c(OC)c1)c1cccc(OCC(=O)NCC(CNC(=O)COc2cccc([C@@H](CCc3ccc(OC)c(OC)c3)OC(=O)[C@@H]3CCCCN3C(=O)[C@@H](CC)c3cc(OC)c(OC)c(OC)c3)c2)CN(C)C)c1)c1cc(OC)c(OC)c(OC)c1` [AP20], in series [1], the “mice that formed teratomas” value is listed as 0/14. For the same compound, the “differentiated progenitors spared / remaining viable” value in series [2] was over 95%.

Values taken from patent publication US20230085945A1, “ORTHOGONAL SAFETY SWITCHES TO ELIMINATE GENETICALLY ENGINEERED CELLS” (The Board of Trustees of the Leland Stanford Junior …, priority 2020, published 2023).
